Like-named read-outs stand apart in the source and are kept apart here.
Key:
[1] = Plasma protein binding, ultrafiltration, human plasma; assay type: in vitro ADME; conditions: read-out: fraction unbound (Fub) in plasma
Description: Cordycepin was spiked into the plasma to give concentrations of 100, 500, 1000 and 5000 ng/mL, and the samples (300 µL) were incubated in the shaking incubator at 250 rpm and 37 °C for 1 h. Following incubation, 100 µL was withdrawn and analysed for Ct. The remaining sample was transferred to a filter device (Amicon Ultra-0.5 Centrifugal Filter Units, MWCO 3000, Merck Millipore, Cork, Ireland) and was centrifuged at 14,000 g for 10 min at room temperature. Filtrate was collected and analysed for Cf. The fraction unbound in plasma (Fub) was calculated by the equation: Cf/Ct × 100 = Fub. Non-specific binding of cordycepin to the filter device was tested at the same concentration range using phosphate buffered saline (PBS) instead of plasma. Experiments were conducted in quadruplicates.
Samples from studies of plasma stability, protein binding, biorelevant solubility and liver microsomal stability were subjected to liquid-liquid extraction and HPLC-UV analysis. To 100 µL of sample, internal standard (2′-deoxyadenosine) was spiked at 10 µg/mL and 300 µL of 0.1 M NaOH was added. Extraction solvent (3 mL) of ethyl acetate-isopropyl alcohol (85:15, v/v) was added and vortex-mixed for 10 min. Samples were then centrifuged at 1160 g for 5 min and the supernatant was transferred and dried under N2 gas. […]

[2] = Biorelevant solubility (FaSSGF, FaSSIF, FeSSIF); assay type: physicochemical; conditions: thermodynamic from solid, compared with reported water solubility
Description: The three biorelevant fluids of fasted state simulated gastric fluid (FaSSGF, pH 1.6), fasted state simulated intestinal fluid (FaSSIF, pH 6.5) and fed state simulated intestinal fluid (FeSSIF, pH 5.0) were prepared according to previously reported compositions. The test mixtures containing biorelevant fluids and excessive amount of cordycepin were shaken at 250 rpm, 37 °C for 2 h in the shaking incubator. The mixtures were then filtered using Costar Spin-X Centrifuge Tubes (Fisher Scientific, Loughborough, UK) at 2400 g for 5 min. The filtrate was subjected to analysis by HPLC-UV. The experiments were conducted in quadruplicates.
Samples from studies of plasma stability, protein binding, biorelevant solubility and liver microsomal stability were subjected to liquid-liquid extraction and HPLC-UV analysis. To 100 µL of sample, internal standard (2′-deoxyadenosine) was spiked at 10 µg/mL and 300 µL of 0.1 M NaOH was added. Extraction solvent (3 mL) of ethyl acetate-isopropyl alcohol (85:15, v/v) was added and vortex-mixed for 10 min. Samples were then centrifuged at 1160 g for 5 min and the supernatant was transferred and dried under N2 gas. Dried samples were reconstituted with 100 uL of deionised distilled water (DDW) and 40 µL was injected into the HPLC-UV. The HPLC-UV setup was adopted from a validated method[22] with addition of a gradient scheme to elute the impurities from samples. Waters Alliance 2695 module with Waters 996 PDA detector was used for the HPLC-UV system with Capcell Pak C18 3 µm, 4.6 × 150 mm as the stationary phase. Mobile phase was a mixture of acetonitrile (A) and DDW (B) at flow rate 0.8 mL/min with a gradient scheme of the following: 0–9 min, B 94%; 9–14 min, B decreased to 20%; 14–24 min, B 20%; 24–26 min, B increased to 94%; and 26–35 min, B 94%. Calibration curves were constructed at a range of 10 – 20000 ng/mL and chromatograms were obtained at 259 nm of wavelength.

[3] = In vivo pharmacokinetics in rats after intravenous or oral cordycepin; set-up: species or system Sprague Dawley rats; conditions: for AUC(0-t) / C0 / clearance: in vivo; for AUC(0-t) / C0 / AUC0→t/Dose of cordycepin: rat plasma; for AUC(0-t): read-out: AUC0→t of cordycepin; for C0: read-out: C0 of cordycepin; for clearance: read-out: CL of cordycepin (converted)
Description: Protocols for the animal experiments in this study were reviewed and approved by the University of Nottingham Ethical Review Committee in accordance with the Animals [Scientific Procedures] Act 1986. Four male Sprague Dawley rats (Charles River Laboratories, UK) of 300–350 g body weight were used. The animals were housed in the Bio Support Unit, University of Nottingham at controlled temperature, 12 h light/dark cycle and free access to food and water. The animals were allowed to acclimatise for at least six days prior to any procedures.
Prior to pharmacokinetic studies, jugular vein cannulation surgery was performed under general anaesthesia (<3% isoflurane inhalation) for blood sampling or intravenous drug administration. Following two nights of recovery from surgery, the animals were intravenously or orally administered with the PBS-based formulation (5.5 mg/mL cordycepin) developed in a previously reported study. The dose was 8 or 20 mg/kg for intravenous administration and 8 or 80 mg/kg for oral administration. […] When whole blood was analysed, an aliquot was withdrawn immediately after mixing with the pretreated pentostatin. Otherwise, the mixture was centrifuged (3000 g, 10 min) to obtain plasma and samples were stored within the storage conditions tested prior to analysis.
Samples from Caco-2 permeability, in vitro determination of CordyTP formation and in vivo experiments were subjected to protein precipitation followed by LC-MS/MS analysis. To 50 µL of rat plasma sample, 150 µL of internal standard solution (1.67 µg/mL 2-chloroadenosine in methanol) was added. The samples were then vortex-mixed for 10 s and were centrifuged for 3 min at 17949 g. Supernatant (20 µL) was collected and diluted 10-fold with DDW before injection into the LC-MS/MS for analysis of cordycepin and 3′-deoxyinosine. For analysis of CordyTP, the supernatant was filtered using filter tubes mentioned above and injected without dilution. Tissue samples were homogenised using Bullet Blender Gold (Next Advance, Inc., Troy, NY) in methanol (1:3 w/v) and centrifuged for 3 min at 17949 g. The supernatant was filtered and injected for analysis of CordyTP or diluted 10-fold with DDW for analysis of cordycepin and 3′-deoxyinosine. The LC-MS/MS system was a API4000 QTrap (AB Sciex, Warrington, UK) equipped with HPLC setup of SCL10Avp controller, LC10ADvp pump and SILHTC autosampler (Shimadzu, Milton Keynes, UK). Three different methods were utilised for each compound and multiple reaction monitoring parameters of the MS/MS conditions are shown in Table 1. The HPLC conditions including stationary phases and specific mass spectrometry parameters are shown in Supplementary Information 2. The LC-MS/MS method for cordycepin was fully validated in terms of accuracy, precision, sensitivity, selectivity, linearity and sample storage stability in accordance with the Guidance for Industry, Bioanalytical Method Validation, (2018) published by the US FDA (refer to Supplementary Information 3 for validation procedures and results)[53].
Data are presented as mean ± standard deviation (SD). A two-tailed unpaired t-test was applied for assessment of statistical significance of differences between two groups. For three or more groups, the statistical significance was assessed by application of a one-way ANOVA followed by Tukey’s multiple comparisons test. A p-value lower than 0.05 was deemed statistically significant. Statistical analyses were conducted using GraphPad Prism version 7.01 (GraphPad Software, Inc., La Jolla, CA, USA). Pharmacokinetic parameters were obtained by non-compartmental analysis using Phoenix WinNonlin 6.3 software (Pharsight, Mountain View, CA, USA).
For calculation of pharmacokinetic parameters, the plasma concentration-time curve was plotted in a semi-log scale. From the plot, the elimination rate constant (ke) was calculated. Elimination half-life (t1/2) wasthen calculated using the following equation: […]

[4] = male, Sprague Dawley, intravenous cordycepin 8 mg/kg
[5] = male, Sprague Dawley, intravenous cordycepin 20 mg/kg

Nc1ncnc2c1ncn2[C@@H]1O[C@H](CO)C[C@H]1O [cordycepin, 3′-deoxyadenosine]
fraction unbound at 1 h [1]: > 0.8
solubility at 2 h ([2]; FaSSGF, fassgf or other biorelevant, pH 1.6, 37 °C, read-out: solubility in FaSSGF): > 5000 µg/mL
solubility at 2 h ([2]; FaSSIF, pH 6.5, 37 °C, read-out: solubility in FaSSIF): > 5000 µg/mL
solubility at 2 h ([2]; FeSSIF, pH 5.0, 37 °C, read-out: solubility in FeSSIF): > 5000 µg/mL
AUC(0-t) [3, 4]: 196 ± 94 ng·h/mL
C0 [3, 4]: 890 ± 576 ng/mL
AUC(0-t) [3, 5]: 232 ± 106 ng·h/mL
C0 [3, 5]: 12300 ± 8840 ng/mL
clearance ([3]; male, Sprague Dawley, rat, intravenous cordycepin 8 mg/kg): 1720 mL/min/kg
clearance ([3]; male, Sprague Dawley, rat, intravenous cordycepin 20 mg/kg): 1520 mL/min/kg
blood plasma ratio ([3]; male, Sprague Dawley, rat, whole blood and plasma, intravenous, 20 mg/kg, intravenous cordycepin 20 mg/kg): 0.68 ± 0.27
AUC0→t/Dose of cordycepin ([3]; intravenous cordycepin 8 mg/kg): 25 ± 12 ng·kg·h/mL/mg
AUC0→t/Dose of cordycepin ([3]; intravenous cordycepin 20 mg/kg): 12 ± 5 ng·kg·h/mL/mg
increase of AUC when dose increased from 8 to 20 mg/kg ([3]; rat, intravenous cordycepin): 1.18 fold
increase of C0 when dose increased from 8 to 20 mg/kg ([3]; rat, intravenous cordycepin): 13.8 fold
blood/plasma ratio ([3]; rat, intravenous cordycepin 20 mg/kg): < 1
cordycepin in plasma after oral administration ([3]; rat, oral cordycepin 8 or 80 mg/kg, any time point, limit of quantification 2 ng/mL): not detected in plasma at all

From publication PMC6823370, “A novel nucleoside rescue metabolic pathway may be responsible for therapeutic effect of orally administered cordycepin” (Scientific Reports, 2019)
